The values below come from publication PMC12604929, “Tumor-specific cytotoxicity of pyrazole-based chalcone derivatives in human oral squamous cell carcinoma cell lines” (Turkish Journal of Biology, 2025).

“Also recorded” adds a separate entry of the source. Read-outs that look alike come from different tables or passages of the source. A value given as a limit tells only on which side of the number the result lay.

For data set [1], the system named is HeLa cells. Also on record: method as in El-Awady et al., 2011. As to conditions: most resistant of five cancer cell lines; ref El-Awady et al., 2011; cited from earlier work.
The subject of data set [2] is U251 cells. Also on record: method as in El-Awady et al., 2011. As to conditions: most sensitive of five cancer cell lines; ref El-Awady et al., 2011; cited from earlier work.
Data set [3] is described as follows: MTT cytotoxicity assay, HPC. The data set is classed as cell-based, human. As to conditions: female, human, human pulp cells (HPC), normal oral cells, average of three determinations.
Experimental: (§2) The viable cell number was determined in triplicate by the MTT method, following the approach adopted in previous studies ([Nagai et al., 2018]; [Shi et al., 2018] ). Briefly, the cells were incubated for 2 h with 0.2 mg/mL of MTT, and the formed formazan was dissolved with 0.1 mL of DMSO to determine the relative viable cell number at 560 nm.
(§3) Cells were inoculated at 2×10^3 cells/0.1 ml in a 96-microwell plate. […] Cells were incubated further for 48 h and the relative viable cell number was then determined by the MTT method and expressed as the absorbance of the cell lysate at 560 nm, using a microplate reader (Infinite F50R; TECAN, Männedorf, Switzerland) [49, 50]. Control cells were treated with the same amounts of DMSO and the cell damage induced by DMSO was subtracted from that induced by test agents. The concentration of compound that reduced the viable cell number by 50% (CC50) was determined from the dose–response curve and the mean value of CC50 for each cell type was calculated from triplicate assays.
(§4) All of these cells were cultured at 37°C in DMEM supplemented with 10% heat-inactivated fetal bovine serum, 100 units/ml, penicillin G and 100 µg/ml streptomycin sulfate under a humidified 5% CO2 atmosphere.
In data set [4] the test system is HSC-2 cells (OSCC, tongue). In words: MTT cytotoxicity assay, HSC-2. As to conditions: for CC50: read-out: CC50 HSC-2; for relative cytotoxicity against HSC-2: from CC50 values 1.1, 2.8, 3.6 μM.
Experimental: as §2, §3
(§5) Human oral squamous cell carcinoma (OSCC) cell lines [Ca9-22 (derived from gingival tissue); and HSC-2, HSC-3, HSC-4 (derived from tongue)] were purchased from Riken Cell Bank (Tsukuba, Japan). All of these cells were cultured at 37°C in DMEM supplemented with 10% heat-inactivated fetal bovine serum, 100 units/ml, penicillin G and 100 µg/ml streptomycin sulfate under a humidified 5% CO2 atmosphere. Cell morphology was checked periodically under a light microscope (EVOS FL; Thermo Fisher Scientific, Waltham, MA, USA).
For data set [5], the system named is Ca9-22 cells (OSCC, gingival tissue). In words: MTT cytotoxicity assay, Ca9-22. The data set is classed as cell-based, human. As to conditions: for TS (C/A) tumor-selectivity index: CC50 HGF / CC50 Ca9-22 (both gingival); for CC50: OSCC, 48 h, MTT, average of three determinations; for PSE (C/A^2)x100 potency-selectivity expression: HGF vs Ca9-22 (both gingival).
Experimental: as §2, §3, §5

Data set [6] relates to human OSCC cell lines (Ca9-22, HSC-2, HSC-3, HSC-4). The experiment in a line: MTT cytotoxicity, four OSCC cell lines together (mean, TS, PSE, type of growth inhibition). As to conditions: for CC50: mean of Ca9-22, HSC-2, HSC-3, HSC-4, read-out: CC50 OSCC mean (B); for type of growth inhibition on the OSCC cell lines: from dose-response curves, Figure 4, cytostatic = without complete cytotoxicity, cytotoxic = complete cell death; for TS (D/B) tumor-selectivity index: mean CC50 normal cells / mean CC50 OSCC cell lines; for PSE (D/B^2)x100 potency-selectivity expression: three normal cell types vs four OSCC cell lines. The format is cell-based. Here is the method:
TS was calculated using the following equation: TS=mean CC50 against three normal oral cell types/mean CC50 against four OSCC cell lines (HGF, HPLF, HPC vs. Ca9-22, HSC-2, HSC-3, HSC-4). Since both Ca9-22 and HGF cells were derived from the gingival tissue, the relative sensitivity of these cells was also compared (as: CC50 against HGF/ CC50 against Ca9-22).
PSE was calculated by the following equation: PSE=mean CC50 against three normal oral cell types/(CC50 against four OSCC cell lines)2 × 100 (HGF, HPLF, HPC vs. Ca9-22, HSC-2, HSC-3, HSC-4); and as CC50 against HGF/(CC50 against Ca9-22)2 × 100 using the pair of cell types from the same tissue (gingiva) (see Table 1).
(§1) Estimation of CC50 values. […] The mean pCC50 values for normal cells and tumor cell lines were defined as N and T, respectively.

Data set [7] is described as follows: MTT cytotoxicity assay, HGF. The data set is classed as cell-based, human. As to conditions: human, human gingival fibroblasts (HGF), normal oral cells, average of three determinations.
Experimental: as §2, §3, §5
In data set [8] the test system is HSC-3 cells (OSCC, tongue). In words: MTT cytotoxicity assay, HSC-3. The data set is classed as cell-based, human. As to conditions: for CC50: OSCC, 48 h, MTT, average of three determinations; for increase of cytotoxicity against HSC-3 compared to MS4: relative to unsubstituted phenyl derivative MS4.
Experimental: as §2, §3, §5
Data set [9] can be described thus: MTT cytotoxicity assay, HPLF. As to conditions: female, human, normal oral cells, average of three determinations. The data set is classed as cell-based, human.
Experimental: as §2, §3, §4
Data set [10] in a line: MTT cytotoxicity, three normal oral cell types together (mean). The data set is classed as cell-based, human. As to conditions: female, human; mean of HGF, HPLF, HPC; read-out: CC50 normal oral cells mean (D).
Excerpt: as §1

In data set [11] the test system is HSC-2 cells. The experiment in a line: Cell-cycle analysis (propidium iodide, cell sorting). The format is cell-based, human. As to conditions: HSC-2, 24 h; for subG1 cell population: control 1.9 %; for share of S-phase cells: control 15.6%; for share of G2+M phase cells: control 20.5%. As to the method:
Cell-cycle analysis was performed following the process described in the literature ([Kantoh et al., 2010]; [Nagai et al., 2018]; [Shi et al., 2018]), details of which are presented in a supplementary file. Briefly, cells (approximately 10^6 in number) were fixed with paraformaldehyde in PBS(−) and treated with RNase A. After staining with propidium iodide in the presence of 0.01% Nonidet-40 to prevent cell aggregation, the cells were filtered through Falcon cell strainers and then subjected to cell sorting, analyzed with Cell Sorter Software (version 2.1.2) (SONY Imaging Products and Solution Inc., Kanagawa, Japan).
HSC-2 cells were incubated for 24 h with actinomycin D (Act.D) (positive control of apoptosis induction) or MS4, 7, or 8, or without treatment (control), and subjected to cell cycle analysis. […] D (1 μM) (p < 0.05) from 1.9 % to 12.5%. […] The cell cycle analysis was performed only with HSC-2 cells; therefore, experiments with other OSCC cell lines should be conducted to support the generalization of our findings.
Treated and untreated cells (approximately 10^6 cells) were harvested, fixed with 1% paraformaldehyde in PBS without calcium and magnesium ions [PBS(−)]. Fixed cells were then washed twice with PBS(−) and treated for 30 min with 400 μl of 0.2 mg/ml RNase A (preheated for 10 min at 100 °C to inactivate DNase) to degrade RNA. Cells were then washed twice with PBS(−) and stained for 15 min with 0.01% propidium iodide (PI) in the presence of 0.01% NP-40 in PBS(−) to prevent cell aggregation. After filtering through Falcon® cell strainers ([…]) (Corning, NY, USA) to remove aggregated cells, PI-stained cells were subjected to cell sorting (SH800 Series; SONY Imaging Products and Solutions Inc., Kanagawa, Japan). Cell-cycle analysis was performed with Cell Sorter Software version 2.1.2. (SONY Imaging Products and Solution Inc.).

The test system of data set [12] is HSC-4 cells (OSCC, tongue). In words: MTT cytotoxicity assay, HSC-4. The data set is classed as cell-based, human. As to conditions: average of three determinations.
Experimental: as §2, §3, §5
Data set [13] has as its system pulp cells (HPC), normal oral cells. In words: MTT cytotoxicity assay, HPC. The data set is classed as cell-based, human. As to conditions: 48 h, average of three determinations.
Experimental: as §2, §3, §4
The test system of data set [14] is gingival fibroblast (HGF), normal oral cells. The experiment in a line: MTT cytotoxicity assay, HGF. The format is cell-based, human. As to conditions: 48 h, average of three determinations.
Experimental: as §2, §3, §5
The subject of data set [15] is periodontal ligament fibroblast (HPLF), normal oral cells. The experiment in a line: MTT cytotoxicity assay, HPLF. As to conditions: 48 h, average of three determinations. The format is cell-based, human.
Experimental: as §2, §3, §4
Data set [16] relates to human normal oral cells (HGF, HPLF, HPC). In words: MTT cytotoxicity, three normal oral cell types together (mean). The format is cell-based. As to conditions: mean of HGF, read-out: CC50 normal oral cells mean (D).
Excerpt: as §1

Consider `Cc1ccc(-c2cc(C(F)(F)F)nn2-c2ccc(S(N)(=O)=O)cc2)cc1` [celecoxib], for which the IC50 in [1] is 37.2 µM; in [2], 11.7 µM.
For the compound `COc1cc(OC)c(C(=O)/C=C/c2cn(-c3ccc(S(N)(=O)=O)cc3)nc2-c2ccccc2)cc1OC` [MS7, (E)-4-(4-(3-Oxo-3-(2,4,5-trimethoxyphenyl)prop-1-en-1-yl)-3-phenyl-1H-pyrazol-1-yl)benzenesulfonamide], the CC50 at 48 h in data set [3], in data set [7], in [9] and in [10] was above 400 µM each time. The CC50 was determined as 2.8 µM in data set [4] (Homo sapiens, HSC-2, 48 h); 1.6 µM in data set [5] (Homo sapiens, Ca9-22); 2.7 µM in data set [6] (Homo sapiens); 3.3 µM in data set [8] (Homo sapiens, HSC-3); 3 µM in data set [12] (Homo sapiens, HSC-4, 48 h). Moreover, in data set [4], the “relative cytotoxicity against HSC-2” value came to 1.3 fold. Further, the “TS (C/A) tumor-selectivity index” value in [5] is above 247.4. Moreover, in data set [5] (relative to reference compound 5-FU), the “times more cytotoxic towards Ca9-22 than 5-FU” value was 20.6 times. The “type of growth inhibition on the OSCC cell lines” value (“type of growth inhibition” for short) in data set [6] was “cytotoxic effects; also recorded: cytotoxic growth inhibition”. Also, the “TS (D/B) tumor-selectivity index” value in data set [6] is above 148.7. The “PSE (D/B^2)x100 potency-selectivity expression” value in data set [6] is reported as above 5531. For the same compound, in data set [8], the “increase of cytotoxicity against HSC-3 compared to MS4” value is given as 1.5–2 times. The “effect on cell cycle distribution” value was “increased the cell population in the S and G2/M phases” in data set [11]; “induced G2+M arrest” in [11] (listed as 7). Also, the subG1 cell population came out at 1.0% in data set [11] (5.6 μM) and 1.3% in [11] (11.2 μM). The “share of S-phase cells” value in data set [11] (concentration not given) was 20.6%. Further, the “share of G2+M phase cells” value in [11] (concentration not given) came to 35.0%. In data set [11] (control 63.2%, concentration not given), the G1 phase cells stood at 44.5%.
With `NS(=O)(=O)c1ccc(-n2cc(/C=C/C(=O)c3ccccc3)c(-c3ccccc3)n2)cc1` [MS4, (E)-4-(4-(3-Oxo-3-phenylprop-1-en-1-yl)-3-phenyl-1H-pyrazol-1 yl) benzenesulfonamide], the CC50 is above 400 µM in [13]; 1.1 µM in data set [4] (OSCC, 48 h, MTT, average of three determinations); 4.9 µM in data set [5]; 3.7 µM in data set [6]; 351 µM in [14]; 5.2 µM in data set [8]. In addition, the CC50 is above 400 µM in data set [15], above 384 µM in data set [16] and 3.5 µM in data set [12] (48 h). Further, the “relative cytotoxicity against HSC-2” value in [4] turned out to be 3.3 fold. Besides, in [5], the “TS (C/A) tumor-selectivity index” value was 71.2. Further, the “PSE (C/A^2)x100 potency-selectivity expression” value in data set [5] was above 1444. Moreover, the “type of growth inhibition” value in data set [6] is on record as “cytostatic effects; also recorded: cytostatic growth inhibition”. Moreover, in [6], the “TS (D/B) tumor-selectivity index” value was above 103.7. The “PSE (D/B^2)x100 potency-selectivity expression” value in data set [6] is on record as above 2800. The “effect on cell cycle distribution” value in data set [11] is “increased the cell population in the S and G2/M phases; also recorded: only slightly induced such changes in cell cycle distribution; also recorded: induced G2+M arrest”. Further, the subG1 cell population in [11] (2.2 μM) is reported as 2.0%.
Regarding `COc1cc(C(=O)/C=C/c2cn(-c3ccc(S(N)(=O)=O)cc3)nc2-c2ccccc2)cc(OC)c1OC` [MS8, (E)-4-(4-(3-Oxo-3-(3,4,5-trimethoxyphenyl)prop-1-en-1-yl)-3-phenyl-1H-pyrazol-1-yl)benzenesulfonamide], the CC50 at 48 h in data set [3] is above 400 µM; in data set [7], above 400 µM; in [9], 340 µM; in data set [10] it was above 380 µM. The CC50 was found to be 3.6 µM in data set [4] (Homo sapiens, HSC-2, 48 h); 2.4 µM in [5] (Homo sapiens, Ca9-22); 3.3 µM in data set [6] (Homo sapiens); 4 µM in data set [8] (Homo sapiens, HSC-3); 3.5 µM in data set [12] (Homo sapiens, HSC-4, 48 h). Further, the “TS (C/A) tumor-selectivity index” value in data set [5] was above 169.0. Moreover, the “PSE (C/A^2)x100 potency-selectivity expression” value in data set [5] is given as above 7141. Besides, the “type of growth inhibition” value in [6] is listed as “cytotoxic effects; also recorded: cytotoxic growth inhibition”. Also, in data set [6], the “TS (D/B) tumor-selectivity index” value is reported as above 113.5. Further, in [6], the “PSE (D/B^2)x100 potency-selectivity expression” value is given as above 3389. Besides, in [8], the “increase of cytotoxicity against HSC-3 compared to MS4” value is 1.5–2 times. The “effect on cell cycle distribution” value in [11] was “increased the cell population in the S and G2/M phases”; in data set [11] (listed as 8), “induced G2+M arrest”. This compound also registered a subG1 cell population in data set [11] (7.2 μM) of 1.3%. Besides, the “share of S-phase cells” value in data set [11] (concentration not given) was 21.2%. The “share of G2+M phase cells” value in data set [11] (concentration not given) is 35.4%.
